Measured values as given in patent publication US6380239B1, “Substituted 1-oxo- and 1,3-dioxoisoindoline and method of reducing inflammatory cytokine levels” (Celgene Corporation, priority 1999, dated 2002).

Compound	melting point [°C]
Nc1cccc2c1CN(C(CCC(=O)O)C(=O)O)C2=O (stereo not shown) [Example 14, 1-(4-Amino-1-oxoisoindolin-2-yl)propane-1,3-dicarboxylic acid]	183 to 185
NC(=O)CCC(C(=O)O)N1C(=O)c2cccc(N)c2C1=O (stereo not shown) [Example 18, 2-(4-Amino-1,3-dioxoisoindolin-2-yl)-4-carbamoylbutanoic acid]	165 to 167
Nc1cccc2c1C(=O)N(C(CCC(=O)O)C(=O)O)C2=O (stereo not shown) [Example 16, 1-(4-Amino-1,3-dioxoisoindolin-2-yl)propane-1,3-dicarboxylic acid]	198 to 200
NC(=O)CCC(C(=O)O)N1C(=O)c2cccc([N+](=O)[O-])c2C1=O (stereo not shown) [Example 17, 2-(4-Nitro-1,3-dioxoisoindolin-2-yl)-4-carbamoylbutanoic acid]	182 to 184
